Data reported in publication PMC3313677 (Biochemistry, 2012).
Like-named read-outs stand apart in the source and are kept apart here.

Tests used:
[1] = target: Mandelate racemase (MR, EC 5.1.2.2); conditions: cited from earlier work
V26A/V29L MR = V26A/V29L MR (Pseudomonas putida, UniProt P11444, V26A/V29L); test: CD-based competitive inhibition of MR variant V26A/V29L; type: biochemical
V22I MR = V22I MR (Pseudomonas putida, UniProt P11444, V22I); test: CD-based competitive inhibition of MR variant V22I; type: biochemical
Y54F MR = Y54F MR (Pseudomonas putida, UniProt P11444, Y54F); test: CD-based competitive inhibition of MR variant Y54F; type: biochemical
V26F MR = V26F MR (Pseudomonas putida, UniProt P11444, V26F); test: CD-based competitive inhibition of MR variant V26F; type: biochemical
N197A MR = conditions: read-out: Ki (competitive inhibition constant); cited from earlier work
T24S MR = T24S MR (Pseudomonas putida, UniProt P11444, T24S); test: CD-based competitive inhibition of MR variant T24S; type: biochemical
E317Q MR = conditions: read-out: Ki (competitive inhibition constant); cited from earlier work
V26A MR = V26A MR (Pseudomonas putida, UniProt P11444, V26A); test: CD-based competitive inhibition of MR variant V26A; type: biochemical
V22F MR = V22F MR (Pseudomonas putida, UniProt P11444, V22F); test: CD-based competitive inhibition of MR variant V22F; type: biochemical
A25V MR = A25V MR (Pseudomonas putida, UniProt P11444, A25V); test: CD-based competitive inhibition of MR variant A25V; type: biochemical
V29F MR = V29F MR (Pseudomonas putida, UniProt P11444, V29F); test: CD-based competitive inhibition of MR variant V29F; type: biochemical
V29D MR = conditions: read-out: Ki (competitive inhibition constant); cited from earlier work
V29A MR = V29A MR (Pseudomonas putida, UniProt P11444, V29A); test: CD-based competitive inhibition of MR variant V29A; type: biochemical
Y54L MR = Y54L MR (Pseudomonas putida, UniProt P11444, Y54L); test: CD-based competitive inhibition of MR variant Y54L; type: biochemical
V22A MR = V22A MR (Pseudomonas putida, UniProt P11444, V22A); test: CD-based competitive inhibition of MR variant V22A; type: biochemical
F52W MR = conditions: read-out: Ki (competitive inhibition constant); cited from earlier work
V26L MR = V26L MR (Pseudomonas putida, UniProt P11444, V26L); test: CD-based competitive inhibition of MR variant V26L; type: biochemical
F52W/Y54W MR = conditions: read-out: Ki (competitive inhibition constant); cited from earlier work
[2] = reversible competitive inhibitor of MR

A25V MR, sequence (P11444 whole entry A25V): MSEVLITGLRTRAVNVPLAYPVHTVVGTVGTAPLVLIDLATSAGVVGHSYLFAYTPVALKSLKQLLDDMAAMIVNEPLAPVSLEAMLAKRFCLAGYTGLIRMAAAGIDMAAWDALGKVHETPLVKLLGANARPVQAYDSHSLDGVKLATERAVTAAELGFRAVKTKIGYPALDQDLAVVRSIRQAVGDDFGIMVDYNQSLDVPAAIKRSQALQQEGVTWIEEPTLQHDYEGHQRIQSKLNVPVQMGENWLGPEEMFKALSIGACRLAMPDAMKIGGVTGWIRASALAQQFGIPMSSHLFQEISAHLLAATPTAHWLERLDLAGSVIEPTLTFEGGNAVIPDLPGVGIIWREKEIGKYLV
V29A MR, sequence (P11444 whole entry V29A): as the sequence (P11444 whole entry A25V) above, with V25A, V29A counted along it
V26L MR, sequence (P11444 whole entry V26L): as the sequence (P11444 whole entry A25V) above, with V25A, V26L counted along it
V26A MR, sequence (P11444 whole entry V26A): as the sequence (P11444 whole entry A25V) above, with V25A, V26A counted along it
V22A MR, sequence (P11444 whole entry V22A): as the sequence (P11444 whole entry A25V) above, with V22A, V25A counted along it
T24S MR, sequence (P11444 whole entry T24S): as the sequence (P11444 whole entry A25V) above, with T24S, V25A counted along it
V29F MR, sequence (P11444 whole entry V29F): as the sequence (P11444 whole entry A25V) above, with V25A, V29F counted along it
Y54F MR, sequence (P11444 whole entry Y54F): as the sequence (P11444 whole entry A25V) above, with V25A, Y54F counted along it
V26F MR, sequence (P11444 whole entry V26F): as the sequence (P11444 whole entry A25V) above, with V25A, V26F counted along it
Y54L MR, sequence (P11444 whole entry Y54L): as the sequence (P11444 whole entry A25V) above, with V25A, Y54L counted along it
V22F MR, sequence (P11444 whole entry V22F): as the sequence (P11444 whole entry A25V) above, with V22F, V25A counted along it
V22I MR, sequence (P11444 whole entry V22I): as the sequence (P11444 whole entry A25V) above, with V22I, V25A counted along it
V26A/V29L MR, sequence (P11444 whole entry V26A/V29L): as the sequence (P11444 whole entry A25V) above, with V25A, V26A, V29L counted along it

For `O=P(O)(O)C(O)c1ccccc1` (stereo not drawn) [α-hydroxybenzylphosphonate], the Ki [1, 2] is listed as 4.7 µM.

In the case of `C[C@@](O)(C(=O)O)c1ccccc1` [(S)-atrolactate], the Ki ([1]; ground state analogue, MR) is listed as 150 µM.

In the case of `O=CN(O)c1ccccc1` [N-hydroxyformanilide], the Ki [1, 2] is listed as 2.8 µM.

In the case of `O=C(NO)c1ccccc1` [benzohydroxamate], the Ki (V26A/V29L MR) is reported as 79.2 ± 3.6 µM, the Ki (V22I MR) is reported as 29.2 ± 5.2 µM and the Ki (Y54F MR) is reported as 13.1 ± 1.1 µM. The Ki (V26F MR) was 462 ± 31.7 µM, the Ki (N197A MR) was 216 ± 6 µM and the Ki (T24S MR) was 209 ± 9.9 µM. The Ki (E317Q MR) was 760 ± 31 µM, the Ki (V26A MR) was 69.3 ± 2.2 µM and the Ki (V22F MR) was 229 ± 86.6 µM. The Ki (A25V MR) was 611 ± 12.2 µM, the Ki (V29F MR) was 40.1 ± 0.2 µM and the Ki (V29D MR) was 2900 ± 700 µM. For the same molecule, the Ki (V29A MR) was 179 ± 23.3 µM, the Ki (Y54L MR) was 25.7 ± 1.9 µM and the Ki [1, 2] was 9.3 µM. The Ki (V22A MR) was 1080 ± 460 µM, the Ki (F52W MR) was 63 ± 10 µM and the Ki (V26L MR) was 440 ± 26.9 µM. The Ki (F52W/Y54W MR) was 640 ± 190 µM.

For `O=NN(O)c1ccccc1` [cupferron], the Ki [1, 2] is given as 2.7 µM.

For `CC(=O)NO` [acetohydroxamate], the Ki ([1]; MR) is listed as 27000 µM.
